In ChEMBL document CHEMBL1201862, “PubChem BioAssay data set” (2004):
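Test compounds were applied to cells in 96-well plates for 48 hours at 5 doses. GI50 is the concentration that inhibits growth by half.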 Activity calls are given as the source filed them. Cut-off read from the data, not from the text of the source: active = GI50 up to about 1.1 µM and inactive = higher.

Key:
Test in all cases: growth of human tumour cells (NCI), 48 h
MDA-N = system: MDA-N
HCT-116 = system: HCT-116
SR = system: SR
Malme-3M = system: Malme-3M
HCT-15 = system: HCT-15
NCI-H460 = system: NCI-H460
COLO 205 = system: COLO 205
OVCAR-5 = system: OVCAR-5
SNB-75 = system: SNB-75
ACHN = system: ACHN
A498 = system: A498
SK-MEL-2 = system: SK-MEL-2
786-0 = system: 786-0
HL-60 = system: HL-60
MDA-MB-231 = system: MDA-MB-231
KM12 = system: KM12
SF-295 = system: SF-295
UO-31 = system: UO-31
MOLT-4 = system: MOLT-4
HOP-92 = system: HOP-92
LOX IMVI = system: LOX IMVI
BT-549 = system: BT-549
T47D = system: T47D
EKVX = system: EKVX
SF-268 = system: SF-268
NCI-H522 = system: NCI-H522
UACC-62 = system: UACC-62
SW-620 = system: SW-620
UACC-257 = system: UACC-257
IGROV-1 = system: IGROV-1
NCI-H23 = system: NCI-H23
OVCAR-8 = system: OVCAR-8
SK-MEL-28 = system: SK-MEL-28
NCI/ADR-RES = system: NCI/ADR-RES
K562 = system: K562
OVCAR-3 = system: OVCAR-3
OVCAR-4 = system: OVCAR-4
SNB-19 = system: SNB-19
DU-145 = system: DU-145
SF-539 = system: SF-539
U-251 = system: U-251
RPMI-8226 = system: RPMI-8226
Hs-578T = system: Hs-578T
CCRF-CEM = system: CCRF-CEM
SN12C = system: SN12C
A549 = system: A549
M14 = system: M14
CAKI-1 = system: CAKI-1
MDA-MB-435 = system: MDA-MB-435
SK-OV-3 = system: SK-OV-3
HCC 2998 = system: HCC 2998
MCF7 = system: MCF7
TK-10 = system: TK-10
HOP-62 = system: HOP-62
PC-3 = system: PC-3
SK-MEL-5 = system: SK-MEL-5
NCI-H226 = system: NCI-H226
HT-29 = system: HT-29

SMILES: COc1ccc(-n2c(CCCC(=O)O)nc3c2C(=O)c2ccccc2C3=O)cc1
- GI50 (MDA-N): 31.4 µM (inactive)
- GI50 (HCT-116): 36.6 µM (inactive)
- GI50 (SR): 66.8 µM (inactive)
- GI50 (Malme-3M): 15.2 µM (inactive)
- GI50 (HCT-15): 44.5 µM
- GI50 (NCI-H460): 93.1 µM (inactive)
- GI50 (COLO 205): 37.1 µM (inactive)
- GI50 (OVCAR-5): > 100 µM (inactive)
- GI50 (SNB-75): 89.5 µM (inactive)
- GI50 (ACHN): 71.3 µM (inactive)
- GI50 (A498): > 100 µM (inactive)
- GI50 (SK-MEL-2): 84.7 µM (inactive)
- GI50 (786-0): > 100 µM (inactive)
- GI50 (HL-60): 31.1 µM (inactive)
- GI50 (MDA-MB-231): 63.5 µM (inactive)
- GI50 (KM12): 64.1 µM (inactive)
- GI50 (SF-295): 43 µM (inactive)
- GI50 (UO-31): > 100 µM (inactive)
- GI50 (MOLT-4): 68.1 µM (inactive)
- GI50 (HOP-92): 20.2 µM (inactive)
- GI50 (LOX IMVI): 54.8 µM (inactive)
- GI50 (BT-549): 8.79 µM (inactive)
- GI50 (T47D): 88.3 µM (inactive)
- GI50 (EKVX): 60.7 µM (inactive)
- GI50 (SF-268): 46.7 µM (inactive)
- GI50 (NCI-H522): 25.8 µM (inactive)
- GI50 (UACC-62): 23.4 µM (inactive)
- GI50 (SW-620): 56.9 µM (inactive)
- GI50 (UACC-257): 27.8 µM (inactive)
- GI50 (IGROV-1): 79.3 µM (inactive)
- GI50 (NCI-H23): 44.1 µM (inactive)
- GI50 (OVCAR-8): 51.3 µM (inactive)
- GI50 (SK-MEL-28): > 100 µM (inactive)
- GI50 (NCI/ADR-RES): > 100 µM (inactive)
- GI50 (K562): 47.3 µM (inactive)
- GI50 (OVCAR-3): 33.3 µM (inactive)
- GI50 (OVCAR-4): 53.3 µM (inactive)
- GI50 (SNB-19): > 100 µM (inactive)
- GI50 (DU-145): 92 µM (inactive)
- GI50 (SF-539): > 100 µM (inactive)
- GI50 (U-251): > 100 µM (inactive)
- GI50 (RPMI-8226): 36.3 µM (inactive)
- GI50 (Hs-578T): > 100 µM (inactive)
- GI50 (CCRF-CEM): 36.3 µM (inactive)
- GI50 (SN12C): 54.6 µM (inactive)
- GI50 (A549): > 100 µM (inactive)
- GI50 (M14): 15.5 µM (inactive)
- GI50 (CAKI-1): > 100 µM (inactive)
- GI50 (MDA-MB-435): 26.4 µM (inactive)
- GI50 (SK-OV-3): > 100 µM (inactive)
- GI50 (HCC 2998): 84.7 µM (inactive)
- GI50 (MCF7): 32.6 µM (inactive)
- GI50 (TK-10): > 100 µM (inactive)

SMILES: Cc1cn(C(CO)OC(CO)CN(O)C2C3CC4CC(C3)CC2C4)c(=O)[nH]c1=O (stereo not given)
- GI50 (MDA-N): > 100 µM (inactive)
- GI50 (HCT-116): > 100 µM (inactive)
- GI50 (SR): > 100 µM (inactive)
- GI50 (HCT-15): > 100 µM
- GI50 (NCI-H460): > 100 µM (inactive)
- GI50 (COLO 205): > 100 µM (inactive)
- GI50 (OVCAR-5): > 100 µM (inactive)
- GI50 (SNB-75): > 100 µM (inactive)
- GI50 (ACHN): > 100 µM (inactive)
- GI50 (HOP-62): > 100 µM (inactive)
- GI50 (A498): > 100 µM (inactive)
- GI50 (SK-MEL-2): > 100 µM (inactive)
- GI50 (786-0): > 100 µM (inactive)
- GI50 (HL-60): > 100 µM (inactive)
- GI50 (MDA-MB-231): > 100 µM (inactive)
- GI50 (KM12): > 100 µM (inactive)
- GI50 (SF-295): > 100 µM (inactive)
- GI50 (UO-31): > 100 µM (inactive)
- GI50 (MOLT-4): > 100 µM (inactive)
- GI50 (HOP-92): > 100 µM (inactive)
- GI50 (BT-549): > 100 µM (inactive)
- GI50 (T47D): > 100 µM (inactive)
- GI50 (PC-3): > 100 µM (inactive)
- GI50 (EKVX): > 100 µM (inactive)
- GI50 (SF-268): > 100 µM (inactive)
- GI50 (SK-MEL-5): > 100 µM (inactive)
- GI50 (UACC-62): > 100 µM (inactive)
- GI50 (NCI-H226): > 100 µM (inactive)
- GI50 (SW-620): > 100 µM (inactive)
- GI50 (UACC-257): > 100 µM (inactive)
- GI50 (IGROV-1): > 100 µM (inactive)
- GI50 (NCI-H23): > 100 µM (inactive)
- GI50 (OVCAR-8): > 100 µM (inactive)
- GI50 (SK-MEL-28): > 100 µM (inactive)
- GI50 (K562): > 100 µM (inactive)
- GI50 (OVCAR-4): > 100 µM (inactive)
- GI50 (SNB-19): > 100 µM (inactive)
- GI50 (HT-29): > 100 µM (inactive)
- GI50 (DU-145): > 100 µM (inactive)
- GI50 (SF-539): > 100 µM (inactive)
- GI50 (U-251): > 100 µM (inactive)
- GI50 (RPMI-8226): > 100 µM (inactive)
- GI50 (Hs-578T): > 100 µM (inactive)
- GI50 (SN12C): > 100 µM (inactive)
- GI50 (A549): > 100 µM (inactive)
- GI50 (M14): > 100 µM (inactive)
- GI50 (CAKI-1): > 100 µM (inactive)
- GI50 (MDA-MB-435): > 100 µM (inactive)
- GI50 (SK-OV-3): > 100 µM (inactive)
- GI50 (HCC 2998): > 100 µM (inactive)
- GI50 (MCF7): > 100 µM (inactive)
- GI50 (TK-10): > 100 µM (inactive)
